Values joined by “and” are separate entries in the source; they are usually repeats but may differ in a detail not shown here. Identical values can stand only once.
How the values were obtained:
[1] = tested on: human liver cancer cell Hep3B; assay: MTT survival rate of Hep3B cells, VCP inhibitor and/or M1 virus (Example 2); format: cell-based
Procedure: b) Reaction of MTT (3-(4,5-dimethylthiazol-2-yl)-2,5-diphenyltetrazolium bromide) with succinate dehydrogenase in the cells as follows: 48 hours after culture, 20 μl MTT (5 mg/ml) was added into each well, and was incubated for further 4 hours.
c) Dissolution of formazan particles formed in the cells was accomplished as follows: the supernatant was carefully sucked off, 100 μl/well DMSO was added to dissolve the formed crystals, and was shaken in a microoscillator for 5 minutes. Then, the optical density (OD value) of each well was detected in an enzyme linked detector at a wavelength of 570 nm. The experiments were repeated for 3 times for each group. The survival rate of the cells=OD value of the drug treatment group/OD value of the control group×100%.
Single and double asterisks in FIGS. 2(A) and 2(B) indicate results with one way ANOVA analysis showing a statistical difference with a single asterisk (*) indicating P<0.05 and a double asterisk (**) indicating P<0.01.

[2] = tested on: human liver cancer cell Hep3B; assay: Morphological observation by phase contrast microscope (Example 1); format: cell-based; conditions: Eeyarestatin I 5 μM and/or M1 virus MOI=0.001; 48 hours after treatment
Procedure: b) Cell treatment and morphological observation: The cells in exponential growth phase were selected and added into a DMEM complete culture medium (containing 10% fetal bovine serum, 1% penicillin/streptomycin (Life Technologies)) to prepare a cell suspension. The cells were inoculated into a 24-well culture plate at a density of 2.5×10^4/well. Each well was then treated by addition of Eeyarestatin I (5 μM), M1 virus (MOI=0.001) or Eeyarestatin I (5 μM) plus M1 virus (MOI=0.001) or left untreated as a control.

[3] = tested on: endoplasmic reticulum stress markers (IRE1, XBP1(S), BiP, p-PERK, p-eIF2a, ATF6, poly-ub; caspase-12, CHOP, p-JNK); assay: Western blot of endoplasmic reticulum stress markers and ER stress-associated apoptosis in Hep3B (Example 5); format: cell-based, human; conditions: Eeyarestatin I 5 μM and/or M1 virus MOI=0.001
Procedure: The cells in the exponential growth phase were selected and added into a DMEM complete culture medium to prepare a cell suspension. The cells were inoculated into a 60 mm culture dish at a density of 1×10^6. After 12 hours the cells were completely adherent to the wall. […] The dose was used as follows: M1 virus (MOI=0.001) that infected cells; Eeyarestatin I (5 μM).
After the time of drug treatment was set up, the protein samples were collected to carry out the Western blot for detecting the marker of endoplasmic reticulum stress (IRE1 XBP1(S), BiP, p-PERK, p-eIF2a, ATF6, poly-ub); and the activation of the pathway of endoplasmic reticulum stress-associated apoptosis (caspase-12, CHOP, p-JNK).

Cc1cc2c(C(N)=O)cccc2n1-c1nc2c(c(NCc3ccccc3)n1)COCC2 [CB-5083]
relative survival rates ([1]; CB-5083 alone compared to combination with M1 (MOI=0.001), 0.124 to 2 μM, FIG. 2(B)): significantly higher relative survival rates

CC1(C)C(N(O)C(=O)Nc2ccc(Cl)cc2)N(c2ccc(Cl)cc2)C(=O)N1CC(=O)N/N=C/C=C/c1ccc([N+](=O)[O-])o1 (centres unmarked) [Eeyarestatin I]
reduction in cell number ([1]; 5 μM alone): 12.8%
survival rate of tumor cells ([1]; 5 μM alone, 48 hours, MTT): 87.2% and 78.2%
morphology of the cells [2]: morphology of the cells was not changed significantly
endoplasmic reticulum stress-associated markers and apoptosis pathway [3]: induce the increase of endoplasmic reticulum stress-associated markers such as IREI, XBPI (S), p-PERK, p-eIF2a

— patent US11234968B2, “Use of VCP inhibitor and oncolytic virus in the preparation of an anti-tumor drug” (priority 2016, dated 2022)
